{
  "source": "patent US20260285850A1",
  "about": "“SUBSTITUTED OXAZOLIDINONES AND IMIDAZOLINONES AS HERBICIDES” (FMC CORPORATION, priority 2023, published 2026)",
  "type_in_all_cases": "in vivo",
  "key": {"[1]": {"test_system": "green foxtail (Setaria viridis)", "assay": "Test A postemergence application, visual injury rating 0-100", "procedure,_shortened": "(§1)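 Plants were grown in a loam soil-sand blend and treated with test chemical in a non-phytotoxic solvent mixture containing surfactant, either sprayed on soil preemergence or applied postemergence to 2-10 cm plants. After 10 days in a greenhouse, injury was scored visually against untreated controls, 0 meaning no effect and 100 complete control.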"}, "soybean (Glycine max) [2]": {"test_system": "soybean (Glycine max)", "assay": "Test A postemergence application, visual injury rating 0-100", "procedure,_shortened": "as §1"}, "kochia (Bassia scoparia) [3]": {"test_system": "kochia (Bassia scoparia)", "assay": "Test A postemergence application, visual injury rating 0-100", "procedure,_shortened": "as §1"}, "[4]": {"test_system": "blackgrass (Alopecurus myosuroides)", "assay": "Test A postemergence application, visual injury rating 0-100", "procedure,_shortened": "as §1"}, "[5]": {"test_system": "wheat (Triticum aestivum)", "assay": "Test A postemergence application, visual injury rating 0-100", "procedure,_shortened": "as §1"}, "[6]": {"test_system": "ragweed (common ragweed, Ambrosia artemisiifolia)", "assay": "Test A postemergence application, visual injury rating 0-100", "procedure,_shortened": "as §1"}, "[7]": {"test_system": "palmer (palmer amaranth, palmer pigweed, Amaranthus palmeri)", "assay": "Test A postemergence application, visual injury rating 0-100", "procedure,_shortened": "as §1"}, "[8]": {"test_system": "ryegrass, Italian (italian ryegrass, Lolium multiflorum)", "assay": "Test A postemergence application, visual injury rating 0-100", "procedure,_shortened": "as §1"}, "[9]": {"test_system": "barnyardgrass (Echinochloa crus-galli)", "assay": "Test A postemergence application, visual injury rating 0-100", "procedure,_shortened": "as §1"}, "[10]": {"test_system": "oat, wild (wild oat, Avena fatua)", "assay": "Test A postemergence application, visual injury rating 0-100", "procedure,_shortened": "as §1"}, "corn (Zea mays) [11]": {"test_system": "corn (Zea mays)", "assay": "Test A postemergence application, visual injury rating 0-100", "procedure,_shortened": "as §1"}, "[12]": {"test_system": "horseweed (Erigeron canadensis)", "assay": "Test A postemergence application, visual injury rating 0-100", "conditions": "Postemergence, 16 g ai/ha, greenhouse 10 days; 0 no effect, 100 complete control", "procedure,_shortened": "as §1"}, "[13]": {"test_system": "green foxtail (Setaria viridis)", "assay": "Test A preemergence soil spray, visual injury rating 0-100", "conditions": "10 days", "procedure,_shortened": "as §1"}, "soybean (Glycine max) [14]": {"test_system": "soybean (Glycine max)", "assay": "Test A preemergence soil spray, visual injury rating 0-100", "conditions": "10 days", "procedure,_shortened": "as §1"}, "kochia (Bassia scoparia) [15]": {"test_system": "kochia (Bassia scoparia)", "assay": "Test A preemergence soil spray, visual injury rating 0-100", "conditions": "10 days", "procedure,_shortened": "as §1"}, "[16]": {"test_system": "blackgrass (Alopecurus myosuroides)", "assay": "Test A preemergence soil spray, visual injury rating 0-100", "conditions": "10 days", "procedure,_shortened": "as §1"}, "[17]": {"test_system": "wheat (Triticum aestivum)", "assay": "Test A preemergence soil spray, visual injury rating 0-100", "conditions": "10 days", "procedure,_shortened": "as §1"}, "[18]": {"test_system": "ragweed (common ragweed, Ambrosia artemisiifolia)", "assay": "Test A preemergence soil spray, visual injury rating 0-100", "conditions": "10 days", "procedure,_shortened": "as §1"}, "[19]": {"test_system": "palmer (palmer amaranth, palmer pigweed, Amaranthus palmeri)", "assay": "Test A preemergence soil spray, visual injury rating 0-100", "conditions": "10 days", "procedure,_shortened": "as §1"}, "[20]": {"test_system": "ryegrass, Italian (italian ryegrass, Lolium multiflorum)", "assay": "Test A preemergence soil spray, visual injury rating 0-100", "conditions": "10 days", "procedure,_shortened": "as §1"}, "[21]": {"test_system": "barnyardgrass (Echinochloa crus-galli)", "assay": "Test A preemergence soil spray, visual injury rating 0-100", "conditions": "10 days", "procedure,_shortened": "as §1"}, "[22]": {"test_system": "oat, wild (wild oat, Avena fatua)", "assay": "Test A preemergence soil spray, visual injury rating 0-100", "conditions": "10 days", "procedure,_shortened": "as §1"}, "corn (Zea mays) [23]": {"test_system": "corn (Zea mays)", "assay": "Test A preemergence soil spray, visual injury rating 0-100", "conditions": "10 days", "procedure,_shortened": "as §1"}, "[24]": {"test_system": "barnyardgrass (Echinochloa crusgalli)", "assay": "Test B flooded paddy test, visual plant response rating 0-100", "conditions": "250 g ai/ha, Flood, applied to paddy water, evaluated after 13 days", "procedure,_shortened": "(§2)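 Plants were grown to the 2-leaf stage, then pots were flooded to 3 cm above the soil and test compounds were applied directly into the paddy water. Water depth was held there throughout; after 13 days in a greenhouse, injury was scored visually against untreated controls.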"}, "rice (Oryza sativa)": {"test_system": "rice (Oryza sativa)", "assay": "Test B flooded paddy test, visual plant response rating 0-100", "conditions": "250 g ai/ha, Flood, applied to paddy water, evaluated after 13 days", "procedure,_shortened": "as §2"}, "[25]": {"test_system": "sedge, umbrella (small-flower umbrella sedge, Cyperus difformis)", "assay": "Test B flooded paddy test, visual plant response rating 0-100", "conditions": "250 g ai/ha, Flood, applied to paddy water, evaluated after 13 days", "procedure,_shortened": "as §2"}, "[26]": {"test_system": "ducksalad (Heteranthera limosa)", "assay": "Test B flooded paddy test, visual plant response rating 0-100", "conditions": "250 g ai/ha, Flood, applied to paddy water, evaluated after 13 days", "procedure,_shortened": "as §2"}, "[27]": {"conditions": "62 g ai/ha, postemergence, 10 days, 0 = no effect, 100 = complete control"}, "[28]": {"conditions": "Postemergence, 16 g ai/ha, greenhouse 10 days, 0 no effect, 100 complete control"}, "[29]": {"conditions": "62 g ai/ha, 0 = no effect, 100 = complete control"}},
  "data": [
    {"compound": "CCOC(=O)C1=CCC(NC(=O)C2(C)CN(c3cc(Cl)cc(Cl)c3)C(=O)O2)C1", "note": "(stereo not shown) [Compound 113]", "values": [
      {"measurement": "Foxtail, Green plant response rating (0-100)", "setting": "[1]; [27]", "value": 20},
      {"measurement": "Foxtail, Green plant response rating (0 to 100 scale)", "setting": "[1]; [28]", "value": 0},
      {"measurement": "Soybean plant response rating (0-100)", "setting": "soybean (Glycine max) [2]; [27]", "value": 0},
      {"measurement": "Soybean plant response rating (0 to 100 scale)", "setting": "soybean (Glycine max) [2]; [28]", "value": 0},
      {"measurement": "Kochia plant response rating (0-100)", "setting": "kochia (Bassia scoparia) [3]; [27]", "value": 0},
      {"measurement": "Kochia plant response rating (0 to 100 scale)", "setting": "kochia (Bassia scoparia) [3]; [28]", "value": 0},
      {"measurement": "Blackgrass plant response rating (0-100)", "setting": "[4]; [27]", "value": 20},
      {"measurement": "Blackgrass plant response rating (0 to 100 scale)", "setting": "[4]; [28]", "value": 0},
      {"measurement": "Wheat plant response rating (0-100)", "setting": "[5]; [27]", "value": 0},
      {"measurement": "Wheat plant response rating (0 to 100 scale)", "setting": "[5]; [28]", "value": 0},
      {"measurement": "Ragweed plant response rating (0-100)", "setting": "[6]; [27]", "value": 30},
      {"measurement": "Ragweed plant response rating (0 to 100 scale)", "setting": "[6]; [28]", "value": 0},
      {"measurement": "Pigweed, Palmer plant response rating (0-100)", "setting": "[7]; [27]", "value": 10},
      {"measurement": "Pigweed, Palmer plant response rating (0 to 100 scale)", "setting": "[7]; [28]", "value": 0},
      {"measurement": "Ryegrass, Italian plant response rating (0-100)", "setting": "[8]; [27]", "value": 0},
      {"measurement": "Ryegrass, Italian plant response rating (0 to 100 scale)", "setting": "[8]; [28]", "value": 0},
      {"measurement": "Barnyardgrass plant response rating (0-100)", "setting": "[9]; [27]", "value": 10},
      {"measurement": "Barnyardgrass plant response rating (0 to 100 scale)", "setting": "[9]; [28]", "value": 0},
      {"measurement": "Oat, Wild plant response rating (0-100)", "setting": "[10]; [27]", "value": 0},
      {"measurement": "Oat, Wild plant response rating (0 to 100 scale)", "setting": "[10]; [28]", "value": 0},
      {"measurement": "Corn plant response rating (0-100)", "setting": "corn (Zea mays) [11]; [27]", "value": 20},
      {"measurement": "Corn plant response rating (0 to 100 scale)", "setting": "corn (Zea mays) [11]; [28]", "value": 0},
      {"measurement": "Horseweed plant response rating (0 to 100 scale)", "setting": "[12]", "value": 0},
      {"measurement": "Foxtail, Green plant response rating", "setting": "[13]; 16 g ai/ha, 0 to 100 scale", "value": 0},
      {"measurement": "Foxtail, Green plant response rating (0-100)", "setting": "[13]; [29]", "value": 0},
      {"measurement": "Soybean plant response rating", "setting": "soybean (Glycine max) [14]; 16 g ai/ha, 0 to 100 scale", "value": 0},
      {"measurement": "Soybean plant response rating (0-100)", "setting": "soybean (Glycine max) [14]; [29]", "value": 0},
      {"measurement": "Kochia plant response rating", "setting": "kochia (Bassia scoparia) [15]; 16 g ai/ha, 0 to 100 scale", "value": 0},
      {"measurement": "Kochia plant response rating (0-100)", "setting": "kochia (Bassia scoparia) [15]; [29]", "value": 0},
      {"measurement": "Blackgrass plant response rating", "setting": "[16]; 16 g ai/ha, 0 to 100 scale", "value": 0},
      {"measurement": "Blackgrass plant response rating (0-100)", "setting": "[16]; [29]", "value": 0},
      {"measurement": "Wheat plant response rating", "setting": "[17]; 16 g ai/ha, 0 to 100 scale", "value": 0},
      {"measurement": "Wheat plant response rating (0-100)", "setting": "[17]; [29]", "value": 0},
      {"measurement": "Ragweed plant response rating", "setting": "[18]; 16 g ai/ha, 0 to 100 scale", "value": 0},
      {"measurement": "Ragweed plant response rating (0-100)", "setting": "[18]; [29]", "value": 0},
      {"measurement": "Pigweed, Palmer plant response rating", "setting": "[19]; 16 g ai/ha, 0 to 100 scale", "value": 0},
      {"measurement": "Pigweed, Palmer plant response rating (0-100)", "setting": "[19]; [29]", "value": 20},
      {"measurement": "Ryegrass, Italian plant response rating", "setting": "[20]; 16 g ai/ha, 0 to 100 scale", "value": 0},
      {"measurement": "Ryegrass, Italian plant response rating (0-100)", "setting": "[20]; [29]", "value": 0},
      {"measurement": "Barnyardgrass plant response rating", "setting": "[21]; 16 g ai/ha, 0 to 100 scale", "value": 0},
      {"measurement": "Barnyardgrass plant response rating (0-100)", "setting": "[21]; [29]", "value": 0},
      {"measurement": "Oat, Wild plant response rating", "setting": "[22]; 16 g ai/ha, 0 to 100 scale", "value": 0},
      {"measurement": "Oat, Wild plant response rating (0-100)", "setting": "[22]; [29]", "value": 0},
      {"measurement": "Corn plant response rating", "setting": "corn (Zea mays) [23]; 16 g ai/ha, 0 to 100 scale", "value": 0},
      {"measurement": "Corn plant response rating (0-100)", "setting": "corn (Zea mays) [23]; [29]", "value": 0},
      {"measurement": "Plant response rating, Barnyardgrass (0 to 100 scale, 0 is no effect and 100 is complete control)", "setting": "[24]", "value": 0},
      {"measurement": "Plant response rating, Rice (0 to 100 scale, 0 is no effect and 100 is complete control)", "setting": "rice (Oryza sativa)", "value": 0},
      {"measurement": "Plant response rating, Sedge, Umbrella (0 to 100 scale, 0 is no effect and 100 is complete control)", "setting": "[25]", "value": 0},
      {"measurement": "Plant response rating, Ducksalad (0 to 100 scale, 0 is no effect and 100 is complete control)", "setting": "[26]", "value": 0}
    ]}
  ]
}
